Active and inactive are the calls of the source.
Columns and labels:
[1] = tested on: INS1; test: beta cell apoptosis inhibitors, cytokine rescue, dose response, luminescence, retest (AID 449756); format: functional, cell-based; conditions: Rattus norvegicus;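 also: cell death triggered by IL-1 beta plus TNF-alpha plus IFN-gamma mixture; protective hits raise ATP signal compared with cytokine alone wells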
[2] = Shn3 3'UTR reporter inhibitors, dose response, cell-based, Clone20 osteoblasts, firefly luciferase, cherry-picked (AID 624132); format: functional;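 also: firefly luciferase luminescence from reporter carrying the Shn3 3'UTR in osteoblasts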
[3] = HepG2 cell cytotoxicity, dose response, cytotoxicity control for Shn3 inhibitor project, CellTiter-Glo, cherry-picked (AID 624134); format: functional, cell-based
[4] = control 3'UTR Renilla luciferase suppression, dose response, counter-screen for Shn3 inhibitor project, cell-based, Clone20-Shn3RL, cherry-picked (AID 624133); format: functional
[5] = reduction of Shn3 3'UTR firefly luciferase signal, dose response, Schnurri-3 inhibitor project, cell-based, Clone20 osteoblasts, cherry-pick, set 2 (AID 720490); format: functional;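 also: actives lower the luminescence signal as inhibitors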
[6] = target: Cytochrome P450 2D6 (Homo sapiens, UniProt P10635);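 also: CYP2D6 member of a cytochrome P450 panel assay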
[7] = target: Cytochrome P450 2C9 (Homo sapiens, UniProt P11712)
[8] = tested on: HEK293; test: NOD1 signaling inhibitors, primary screen, cell-based, luminescence, uHTS (AID 1578); format: functional; conditions: Homo sapiens
[9] = tested on: HEK293; test: cells; format: functional, cell-based; conditions: Homo sapiens
[10] = tested on: HEK293; test: cells; format: functional, cell-based; conditions: Homo sapiens; remark: listed apart in the source
[11] = tested on: HEK293; test: NOD2 signaling inhibitors in MDP-stimulated cells, cell-based, uHTS, luminescence (AID 2001); format: functional; conditions: Homo sapiens
[12] = Luminescence Cell-Based Dose Retest to Confirm Inhibitors of Cancer Stem Cells. [Related pubchem assays (depositor defined):AID2717, AID2721]; format: functional; conditions: Homo sapiens
[13] = target: COUP transcription factor 2 (Homo sapiens, UniProt P24468); test: Luminescence-based cell-based high throughput dose response assay to identify inhibitors of COUP-TFII (NR2F2).; format: functional;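 also: HEK293 cells transiently cotransfected with COUP-TFII expression vector and reporter; luciferase reporter luminescence driven by COUP-TFII from the pX2-168 reporter plasmid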
[14] = THP-1 cell cytotoxicity, dose response, cytotoxicity control for Vif-APOBEC3G degradation inhibitor project, THP-1 cells (AID 1117359); format: functional; conditions: Human immunodeficiency virus 1, THP-1
[15] = Fluorescence-based cell-based high throughput dose response assay for inhibitors of the interaction of nucleotide-binding oligomerization domain containing 2 (NOD2) and the receptor-interacting serine-threonine kinase 2 (RIPK2).; format: functional; conditions: Homo sapiens
[16] = target: Paired box protein Pax-8 (Homo sapiens, UniProt Q06710); test: inhibitors of PAX8-driven TPO luciferase reporter, dose response, RMG-I cells, cherry-pick (AID 687027); format: functional, cell-based;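 also: luciferase reporter driven by Pax8 target thyroperoxidase promoter measured by SteadyGlo luminescence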
[17] = A549 cell cytotoxicity, dose response, cytotoxicity control, plate reader, cherry-pick, antagonist series (AID 743412); format: functional, cell-based
[18] = HepG2 cell cytotoxicity, dose response, cytotoxicity control, plate reader, cherry-pick, antagonist series (AID 743416); format: functional, cell-based
[19] = LGR2 antagonists, dose response, cell-based, HEK293, CRE-luciferase reporter, cherry pick, set 2 (AID 743343); format: functional;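 also: transfected cells were stimulated with diluted bursicon conditioned medium after compound addition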
[20] = MC4R antagonists, dose response, counter-screen for LGR2 antagonist project, cell-based, plate reader, cherry pick (AID 743444); format: functional;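 also: transfected HEK 293 cells stimulated with alpha-MSH peptide; potency of inhibitors of the alpha-MSH evoked signal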
[21] = HEK293 cell cytotoxicity, dose response, cytotoxicity control, plate reader, cherry-picked samples (AID 743446); format: functional, cell-based
[22] = target: Major prion protein (Homo sapiens, UniProt P04156); format: functional, cell-based
[23] = cells
[24] = target: T1, Caspase-6 (Homo sapiens, UniProt P55212); test: human caspase-6 inhibitors, dose response, biochemical, VEID-R110 fluorescence, cherry-pick (AID 720632)
T1 sequence (P55212 whole entry): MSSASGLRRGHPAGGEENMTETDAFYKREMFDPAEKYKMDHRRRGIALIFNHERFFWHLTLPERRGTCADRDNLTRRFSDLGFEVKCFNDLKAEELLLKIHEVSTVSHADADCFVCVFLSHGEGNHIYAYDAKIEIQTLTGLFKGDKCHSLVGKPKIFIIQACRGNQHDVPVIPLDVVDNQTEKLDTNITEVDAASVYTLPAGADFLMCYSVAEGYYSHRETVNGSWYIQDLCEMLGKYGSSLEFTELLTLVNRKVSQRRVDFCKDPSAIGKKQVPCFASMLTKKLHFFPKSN

[25] = tested on: H9c2; test: cells; format: functional, cell-based; conditions: Rattus norvegicus, H9c2, Myocardium;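 also: confirmatory concentration-response retest of ultra-high-throughput screening hits for modulation of myocardial damage; cell death induced by hydrogen peroxide oxidative stress; compound pretreatment for 60 min then peroxide exposure for 2 h; potency is for protecting the cells against peroxide damage rather than for killing them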
[26] = target: Histone-lysine N-methyltransferase NSD2 (Homo sapiens, UniProt O96028); format: biochemical
[27] = target: Glucose-6-phosphate 1-dehydrogenase (Homo sapiens, UniProt P11413); test: human G6PD enzyme inhibitors, dose response, selectivity assay for P. falciparum G6PD inhibitor project, biochemical, fluorescence (AID 504792); format: functional
[28] = target: DNA (cytosine-5)-methyltransferase 1 (Homo sapiens, UniProt P26358); test: DNMT1 methyltransferase inhibitors, confirmation, biochemical, fluorescent molecular beacon (AID 602386); format: functional

## Cc1ccc2c(c1)nnn2C1CCN(S(=O)(=O)c2ccc(C(=O)N3C(C)CCCC3C)cc2)CC1 (centres undefined)
[1]
  AC50: 4.53 µM (active)
[2]
  AC50: 0.695 µM (active)
[3]
  AC50: 60.8 µM (active)
[4]
  AC50: 11.4 µM (active)
[5]
  AC50: 1.29 µM (active)
[6]
  AC50: 0.158 µM (inconclusive)
[7]
  AC50: 15.8 µM (inconclusive)

## Fc1ccc2[nH]c3c(N4CCc5ccccc5C4)ncnc3c2c1
[8]
  EC50: 3.14 µM (active)
[9]
  IC50: 1.51 µM (active)
[10]
  IC50: 12.4 µM (active)
[11]
  IC50: 1.27 µM (active)
[12]
  AC50: 13.8 µM (active)
[2]
  AC50: 0.466 µM (active)
[3]
  AC50: 3.91 µM (active)
[4]
  AC50: 24.1 µM (active)
[13]
  IC50: 5.24 µM (active)
[14]
  CC50: > 40 µM (active)

## CC1CC(C)(O)CC(C(O)CC2CC(=O)NC(=O)C2)C1=O (centres undefined) [RESACTIN A]
[2]
  AC50: 0.339 µM (active)
[4]
  AC50: 6.15 µM (active)
[15]
  IC50: 49.7 µM (inactive)
[16]
  AC50: < 0.26 µM (active)
[13]
  IC50: 0.36 µM (active)
[17]
  AC50: 0.424 µM (active)
[18]
  AC50: 0.945 µM (active)
[19]
  AC50: 0.441 µM (active)
[20]
  AC50: 1.14 µM (active)
[21]
  AC50: 0.757 µM (active)

## COc1ccc(-c2nc3ccc(Br)cn3c2Cc2cccc(Cl)c2)cc1OC
[22]
  IC50: 5.35 µM (active)
[23]
  IC50: > 138 µM (inactive)

## CCC(CO)NC(=O)C1C=C2c3cccc4[nH]cc(c34)CC2N(C)C1 (centres undefined)
[24]
  AC50: 27.3 µM (active)

## Nc1ncc(-c2ccccc2)n1CC1CCCO1 (centres undefined)
[25]
  IC50: > 79 µM (inactive)
[26]
  AC50: > 20 µM (inactive)
[7]
  AC50: 14.1 µM (inconclusive)

## CCc1nonc1NC(=O)c1oc2cc(Br)ccc2c1C
[22]
  IC50: 3.55 µM (active)
[23]
  IC50: > 138 µM (inactive)

## COC1=C(N)C(=O)c2nc(C)ccc2C1=O
[27]
  IC50: 59.6 µM (inactive)
[28]
  IC50: 4.94 µM (active)
[26]
  AC50: 0.61 µM (active)
[14]
  CC50: 20.8 µM (active)
